# Measurements published in article PMC12087607 (Drug Design, Development and Therapy, 2025).
# Experiments:
# rat livers = type: in vivo; settings: toxicity groups
# [1] = system: rats with CCl4-induced liver fibrosis; assay: Serum liver biomarkers in CCl4-induced liver fibrosis; type: in vivo, rat; settings: CCl4 6 weeks, then 6-week treatment 20 mg/kg/day
# [2] = system: rats with CCl4-induced liver fibrosis; assay: Liver histology; type: in vivo, rat; settings: CCl4 6 weeks, then 6-week treatment 20 mg/kg/day
# α-SMA = assay: Immunohistochemical staining of α-SMA in CCl4-induced liver fibrosis; type: in vivo, rat; settings: CCl4 6 weeks, then 6-week treatment 20 mg/kg/day; vs model group
# TGF-β1 = assay: Hepatic TGF-β1 mRNA expression; type: in vivo, rat; settings: CCl4 6 weeks, then 6-week treatment 20 mg/kg/day; vs model group
# TIMP-1 = assay: Hepatic TIMP-1 protein levels; type: in vivo, rat; settings: tissue homogenates; CCl4 6 weeks, then 6-week treatment 20 mg/kg/day
# MMP-9 = assay: Hepatic MMP-9 mRNA expression; type: in vivo, rat; settings: CCl4 6 weeks, then 6-week treatment 20 mg/kg/day
# MDA = assay: Lipid peroxides; type: in vivo, rat; settings: liver homogenates; CCl4 6 weeks, then 6-week treatment 20 mg/kg/day
# GSH = assay: Reduced glutathione; type: in vivo, rat; settings: liver homogenates; CCl4 6 weeks, then 6-week treatment 20 mg/kg/day
# TNF-α = assay: Liver TNF-α content; type: in vivo, rat; settings: liver homogenates; CCl4 6 weeks, then 6-week treatment 20 mg/kg/day
# male Wistar rats [3] = assay: In vivo toxicity study: daily inspection and body weight; settings: daily inspection, body weight twice weekly, 6 weeks
# male Wistar rats [4] = assay: In vivo toxicity study: hepatic and renal serum biomarkers; settings: in vivo toxicity study groups, 6 weeks, mean ± SEM, n = 5
compound,measurement,setting,value
Cc1ccc(-c2cc(C(F)(F)F)nn2-c2ccc(S(N)(=O)=O)cc2)cc1 [celecoxib],Gross examination of rat livers,rat livers,normal smooth livers with no inflammation or fatty depositions
same,Serum ALP levels,[1]; normal range 30 to 130 U/L,lied within the normal range
same,Serum AST and ALT levels,[1]; vs model group,significant reduction in liver enzyme levels
same,Total serum bilirubin (TBIL) levels,[1]; vs model group,significant decrease in the total serum bilirubin levels
same,Liver architecture (H&E),[2],evident fibrolytic effects
same,Fibrosis score (0–4),[2]; Masson's trichrome,significant decrease in fibrosis scores
same,α-SMA % change (in words),α-SMA,significant decline of the α-SMA %
same,Hepatic TGF-β1 mRNA expression,TGF-β1,significant reduction in the expression of TGF- β1
same,Hepatic TIMP-1 protein levels,TIMP-1,caused a decrease in TIMP-1 levels
same,Hepatic MMP-9 mRNA expression,MMP-9,reversed that upregulation
same,MDA content (lipid peroxides),MDA,significant lowering effect on MDA levels
same,GSH content,GSH,significant rise in GSH levels
same,Liver TNF-α content,TNF-α,significantly superior effect in lowering TNF-α levels
same,"Signs of stress, toxicity or weight loss",male Wistar rats [3],"did not show any signs of stress, toxicity or weight loss"
same,ALP,male Wistar rats [4],123 ± 6.59 U/L
same,ALT,male Wistar rats [4],45.66 ± 0.88 U/L
same,AST,male Wistar rats [4],127.5 ± 14 U/L
same,Albumin,male Wistar rats [4],3.68 ± 0.04 g/dL
same,Creatinine,male Wistar rats [4],0.43 ± 0.06 mg/dL
same,Total Bilirubin,male Wistar rats [4],0.045 ± 0.006 mg/dL
